Assay results taken from article PMC11986510, “Duplexed CeTEAM drug biosensors reveal determinants of PARP inhibitor selectivity in cells” (The Journal of Biological Chemistry, 2025).
pEC50, pIC50: −log10 of the molar value. Like-named read-outs stand apart in the source and are kept apart here.

Tests used:
[1] = biological target: T1, PARP2 L269A-mCherry (Homo sapiens, UniProt Q9UGN5, L282A); experiment: cell-based; assay type: cell-based
[2] = system: PARP1; settings: reported value, footnote b: cell-based assay; literature-derived, no reference given; cited from earlier work
[3] = system: U-2 OS cells; experiment: S/G2-phase cell cycle shift from median Hoechst 33342 intensity (trapping-like phenotype); assay type: cell-based, human; settings: for S/G2 enrichment in words: median Hoechst intensity
[4] = system: PARP2; settings: reported value, footnote b: cell-based assay; literature-derived, no reference given; cited from earlier work
[5] = biological target: T1, PARP2 L269A-mCherry; assay type: cell-based; settings: 10 μM, 16 h; hit = statistically significant (p < 0.05)
[6] = system: PARP2; settings: cited from earlier work
[7] = system: PARP1; settings: cited from earlier work
[8] = system: PARP2; design: method as in PMID 36961901; settings: reported; ref [23]; cited from earlier work
[9] = biological target: T1, PARP2 L269A-mCherry; settings: shNT and shHPF1 cells, 24 h
[10] = biological target: T1, PARP2 L269A-mCherry; settings: 24-h PARPi treatment
[11] = system: U-2 OS cells; experiment: cells; settings: Homo sapiens, U2OS, 24 h
[12] = system: PARP2; settings: biophysical measures; ref [26]; cited from earlier work
[13] = biological target: PARP2 (Homo sapiens, UniProt Q9UGN5); settings: 10 μM olaparib, CCRF-CEM lysate, 37-70 °C
Sequence of PARP2 (Homo sapiens, UniProt Q9UGN5) (Q9UGN5 whole entry): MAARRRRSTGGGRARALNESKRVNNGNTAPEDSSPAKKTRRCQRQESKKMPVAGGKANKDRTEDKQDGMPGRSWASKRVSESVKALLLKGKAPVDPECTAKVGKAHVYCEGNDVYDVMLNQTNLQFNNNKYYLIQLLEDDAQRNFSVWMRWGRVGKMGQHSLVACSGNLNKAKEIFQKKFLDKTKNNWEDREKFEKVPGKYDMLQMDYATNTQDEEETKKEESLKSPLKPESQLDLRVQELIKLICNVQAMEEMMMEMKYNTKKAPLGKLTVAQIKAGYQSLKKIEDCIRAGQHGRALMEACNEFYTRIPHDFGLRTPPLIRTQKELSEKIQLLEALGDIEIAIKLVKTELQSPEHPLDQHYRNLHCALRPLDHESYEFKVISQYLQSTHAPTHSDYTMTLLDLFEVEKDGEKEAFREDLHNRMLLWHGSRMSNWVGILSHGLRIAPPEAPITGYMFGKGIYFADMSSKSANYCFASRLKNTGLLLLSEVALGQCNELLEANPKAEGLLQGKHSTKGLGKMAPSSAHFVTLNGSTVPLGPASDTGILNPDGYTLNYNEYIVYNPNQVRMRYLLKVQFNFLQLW

[14] = system: U-2 OS cells; settings: 24 h PARPi
[15] = Homo sapiens, U2OS, 24 h, read-out: S/G2 shift EC50
[16] = PARP2 L269A-mCherry EC50, CeTEAM stabilization, live U-2 OS dual biosensor cells, 24 h PARPi gradient, n = 3
[17] = Homo sapiens, U2OS, 24 h, read-out: S/G2 shift EC50 (text)
[18] = reported value, footnote a: biochemical assay, literature-derived, no reference given, read-out: PARP2 IC50
[19] = reported value, footnote a: biochemical assay, literature-derived, no reference given, read-out: PARP1 IC50
[20] = CeTEAM stabilization, live U-2 OS dual biosensor cells, 24 h PARPi gradient, n = 3, read-out: PARP2 L269A-mCherry EC50
[21] = median Hoechst intensity change, 24 h PARPi gradient, PARP1/2 biosensor U-2 OS cells, read-out: S/G2 shift EC50
[22] = read-out: S/G2 shift EC50, shHPF1
[23] = read-out: S/G2 shift EC50, shNT

T1 sequence (Q9UGN5 other isoform, or with tags, fused parts or gaps L269A): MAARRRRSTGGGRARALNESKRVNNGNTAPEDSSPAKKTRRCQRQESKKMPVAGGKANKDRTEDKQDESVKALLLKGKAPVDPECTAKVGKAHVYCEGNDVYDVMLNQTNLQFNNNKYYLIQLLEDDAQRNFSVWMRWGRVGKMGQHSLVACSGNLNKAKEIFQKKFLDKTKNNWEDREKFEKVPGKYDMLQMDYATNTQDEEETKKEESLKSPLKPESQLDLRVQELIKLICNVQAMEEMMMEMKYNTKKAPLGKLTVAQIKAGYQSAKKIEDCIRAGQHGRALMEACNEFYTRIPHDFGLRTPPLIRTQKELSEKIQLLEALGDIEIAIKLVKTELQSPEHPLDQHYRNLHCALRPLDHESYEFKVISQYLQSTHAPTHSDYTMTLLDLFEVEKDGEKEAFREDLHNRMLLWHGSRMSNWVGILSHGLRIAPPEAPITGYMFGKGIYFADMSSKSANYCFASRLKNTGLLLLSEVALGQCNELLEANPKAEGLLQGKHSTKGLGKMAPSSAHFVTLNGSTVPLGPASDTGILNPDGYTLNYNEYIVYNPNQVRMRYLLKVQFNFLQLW

With Oc1cccc2c(O)nccc12 [1,5-Isoquinolinediol] as the compound, how does the pEC50 ([1]; PARP2 L269A-mCherry EC50) read?
Its pEC50 is 6.00.

With NC(=O)c1cccc(N)c1 [3-AB, 3-aminobenzamide] as the compound, how does the pIC50 [2] read?
Its pIC50 is […].

And the “S/G2 enrichment in words” value ([3]; 24 h)?
Its value is “no observable activity”.

Which results are given for NC(=O)c1cccc2nc(-c3ccc([C@@H]4CCCN4)cc3F)[nH]c12 [A-966492]?
pIC50 [2]: 9.00; pIC50 [4]: 8.82; pEC50 [3, 15]: 7.38

With CN(C)Cc1ccc(-c2nc3cccc4c3n2CCNC4=O)cc1 [AG14361] as the compound, how does the pIC50 [2] read?
Its pIC50 is 7.85.

What about the pEC50 [1, 16] of the same compound?
Its pEC50 is 7.08.

And the pEC50 [3, 15]?
Its pEC50 is 5.95.

Which “PARP2 L269A-mCherry abundance change versus DMSO control” value [5] does the source give for O=C(Nc1c[nH]nc1-c1nc2ccc(CN3CCOCC3)cc2[nH]1)NC1CC1 [AT9283] here?
Its value is “modest but significant effect”.

With Cc1cc(Nc2nc(N[C@@H](C)c3ccc(F)cc3)c(C#N)cc2F)[nH]n1 [AZ960] as the compound, how does the “PARP2 L269A-mCherry abundance change versus DMSO control” value [5] read?
The value was “also affected PARP2 L269A-mCherry”.

With N#Cc1cccnc1N1CCN(C(=O)c2cccc(Cc3n[nH]c(=O)c4ccccc34)c2)CC1 [AZ9482] as the compound, how does the pIC50 [2] read?
Its pIC50 is […].

What about the pIC50 [4] of the same compound?
Its pIC50 is 9.00.

And the pEC50 [3, 15]?
Its pEC50 is 9.45.

And the pEC50 [3, 17]?
Its pEC50 is 9.46.

With COC1CCN(C(=O)c2cc(Cc3n[nH]c(=O)c4ccccc34)ccc2F)CC1 [AZD2461] as the compound, how does the pIC50 [6, 18] read?
The pIC50 was 8.70.

And the pEC50 [1, 16]?
The pEC50 was 7.44.

What about the pIC50 [7, 19] of the same compound?
Its pIC50 is 8.30.

And the pEC50 [3, 15]?
Its pEC50 is 6.84.

With CCc1cc2ncc(CN3CCN(c4ccc(C(=O)NC)nc4)CC3)cc2[nH]c1=O [AZD5305] as the compound, how does the pIC50 [6, 18] read?
The pIC50 was 5.85.

What about the pEC50 [3, 15] of the same compound?
The pEC50 was 7.22.

And the pEC50 [3, 17]?
The pEC50 was about 7.21.

With Cn1cccc1/C=C1\C(=O)NC(=O)c2ccccc21 [BYK204165] as the compound, how does the pIC50 [6, 18] read?
The pIC50 was 5.38.

And the pEC50 [1, 20]?
Its pEC50 is 5.78.

With O=c1[nH]nc2c3c(cccc13)N=C(CN1Cc3ccccc3C1)N2 [E7449] as the compound, how does the pIC50 [6, 18] read?
The pIC50 was […].

What about the pEC50 [3, 21] of the same compound?
Its pEC50 is 5.40.

With O=C(c1cc(Cc2n[nH]c(=O)c3ccccc23)ccc1F)N1CCn2nc(C(F)(F)F)nc2C1 [Fluzoparib] as the compound, how does the pEC50 [1, 16] read?
The pEC50 was 7.56.

What about the pEC50 [3, 15] of the same compound?
Its pEC50 is 4.33.

For NC(=O)c1ccc(I)c([N+](=O)[O-])c1 [Iniparib], which “PARP2 L269A-mCherry biosensor response irrespective of HPF1 levels” value [9] is on record?
The value was “unaffected”.

What about the “PARP2 L269A-mCherry stabilization in words” value ([1]; concentration gradient, 24 h) of the same compound?
The value was “inactive”.

With O=c1[nH]c(SCCN2CCN(c3ccccn3)CC2)nc2ccccc12 [MC2050] as the compound, how does the pIC50 [6, 18] read?
Its pIC50 is 6.26.

What about the pEC50 [1, 20] of the same compound?
Its pEC50 is 5.60.

And the pIC50 [7, 19]?
The pIC50 was 8.03.

Which results are given for CNCc1ccc(-c2cc3cc(F)cc(C(N)=O)c3o2)cc1 [Mefuparib]?
pIC50 [6, 18]: 8.72; pEC50 [1, 16]: 7.04; pIC50 [7, 19]: 8.49; pEC50 [3, 15]: 8.63

With NC(=O)c1cc(F)cc2c1C(=O)N(C1CCN(C3CCC(F)(F)CC3)CC1)C2 [NMS-P118, 2-[1-(4,4-Difluorocyclohexyl)piperidin-4-yl]-6-fluoro-3-oxo-2,3-dihydro-1H-isoindole-4-carboxamide] as the compound, how does the pIC50 [6, 18] read?
The pIC50 was 5.86.

What about the pIC50 [7, 19] of the same compound?
The pIC50 was 8.05.

What about the pEC50 [3, 15] of the same compound?
The pEC50 was 5.23.

With NC(=O)c1cccc2cn(-c3ccc([C@@H]4CCCNC4)cc3)nc12 [Niraparib, 2-{4-[(3S)-piperidin-3-yl]phenyl}-2H-indazole-7-carboxamide] as the compound, how does the “PARP2 L269A-mCherry stabilization by Western blot” value [10] read?
The value was “stabilized PARP2 L269A significantly worse than PARP1 L713F”.

And the pEC50 [11, 22]?
Its pEC50 is 8.76.

What about the pEC50 [11, 23] of the same compound?
The pEC50 was 8.11.

What about the “Binding to PARP2 worse than to PARP1” value [12] of the same compound?
The value was about 50 fold.

With O=C(c1cc(Cc2n[nH]c(=O)c3ccccc23)ccc1F)N1CCN(C(=O)C2CC2)CC1 [Olaparib] as the compound, how does the pIC50 [6, 18] read?
The pIC50 was 9.00.

And the “Endogenous PARP2 stability by CETSA” value [13]?
The value was “negligible shifts”.

What about the pEC50 [11, 22] of the same compound?
The pEC50 was 8.72.

What about the pEC50 [11, 23] of the same compound?
The pEC50 was 7.84.

And the pEC50 [3, 15]?
The pEC50 was 7.59.

With Cc1nc(Nc2[nH]nc3c2CN(C(=O)N[C@H](CN(C)C)c2ccccc2)C3(C)C)c2sccc2n1 [PF-3758309] as the compound, how does the “PARP2 L269A-mCherry abundance change versus DMSO control” value [5] read?
The value was “also affected PARP2 L269A-mCherry”.

With CN(C)CC(=O)Nc1ccc2[nH]c(=O)c3ccccc3c2c1 [PJ34] as the compound, how does the pIC50 [6, 18] read?
Its pIC50 is […].

And the “PARP2 cellular EC50 worse than reported IC50” value ([1]; CeTEAM EC50 compared to reported IC50)?
The value was over 10 fold.

What about the pIC50 [7, 19] of the same compound?
Its pIC50 is 6.96.

And the pEC50 [3, 21]?
The pEC50 was 5.43.

With C[C@]12CCCN1CC1=NNC(=O)c3cc(F)cc4[nH]c2c1c34 [Pamiparib] as the compound, how does the pIC50 [6, 18] read?
Its pIC50 is 9.30.

And the pEC50 [1, 16]?
Its pEC50 is 8.83.

And the pEC50 [3, 15]?
The pEC50 was 8.53.

With CNCc1ccc(-c2[nH]c3cc(F)cc4c3c2CCNC4=O)cc1 [Rucaparib] as the compound, how does the pEC50 [3, 15] read?
Its pEC50 is 7.63.

With O=C(c1cc(Cn2c(=O)[nH]c(=O)c3c(F)cccc32)ccc1F)N1CCN(c2ncccn2)CC1 [Senaparib] as the compound, how does the pIC50 [6, 18] read?
Its pIC50 is 8.80.

And the pEC50 ([1]; PARP2 L269A-mCherry EC50)?
Its pEC50 is 8.28.

And the pEC50 ([1]; PARP2 L269A-mCherry stabilization EC50)?
The pEC50 was 8.28.

What about the pIC50 [7, 19] of the same compound?
The pIC50 was 9.32.

What about the pEC50 [3, 15] of the same compound?
The pEC50 was 9.40.

And the pEC50 [3, 17]?
The pEC50 was 9.40.

With Cn1ncnc1[C@H]1c2n[nH]c(=O)c3cc(F)cc(c23)N[C@@H]1c1ccc(F)cc1 [Talazoparib] as the compound, how does the pIC50 [6, 18] read?
The pIC50 was […].

And the pEC50 [11, 22]?
The pEC50 was 10.05.

What about the pEC50 [11, 23] of the same compound?
The pEC50 was 9.54.

What about the pEC50 [3, 15] of the same compound?
The pEC50 was 9.56.

And the pEC50 [3, 17]?
Its pEC50 is 9.55.

With CC(C)(O)c1ccc(-c2nc3c(F)cc(F)cc3c(=O)[nH]2)cc1 [Tankyrase-IN-2] as the compound, how does the pEC50 [1, 20] read?
The pEC50 was 4.88.

What about the pIC50 [7, 19] of the same compound?
The pIC50 was 6.15.

What about the “S/G2 enrichment in words” value ([3]; 24 h) of the same compound?
Its value is “no observable activity”.

With C[C@]1(c2nc3c(C(N)=O)cccc3[nH]2)CCCN1 [Veliparib] as the compound, how does the pEC50 ([14]; read-out: S/G2 shift EC50, shHPF1, HPF1 knockdown) read?
Its pEC50 is 7.26.

What about the pEC50 ([14]; read-out: S/G2 shift EC50, shNT, control hairpin shNT) of the same compound?
Its pEC50 is 6.15.

What about the pEC50 [3, 21] of the same compound?
Its pEC50 is 6.28.

With O=C(c1cc(Cc2n[nH]c(=O)c3ccccc23)ccc1F)N1CC(CNC2CC2)C1 [Venadaparib] as the compound, how does the pIC50 ([6]; biochemical inhibition data, ref [30], [31], read-out: Biochemical inhibition of PARP2) read?
The pIC50 was 8.52.

And the pEC50 [1, 16]?
The pEC50 was 8.23.

And the pEC50 ([1]; PARP2 L269A-mCherry stabilization EC50, live-cell CeTEAM, 24 h)?
Its pEC50 is 8.23.

And the pIC50 ([7]; biochemical inhibition data, ref [30], [31], read-out: Biochemical inhibition of PARP1)?
The pIC50 was 9.10.

And the pEC50 [3, 15]?
Its pEC50 is 6.71.

For bisindolylmaleimide I, which “PARP2 L269A-mCherry abundance change versus DMSO control” value [5] is on record?
The value was “significantly decreased”.
